Legend:
MEXF 514L = test: Cytotoxic activity, propidium iodide fluorescence assay, panel of 9 human cancer cell lines; type: cell-based; conditions: MEXF 514L melanoma, 3-7 days
Experimental: (§1) Three kinds of stock solutions were prepared for in vitro cytotoxic activity test. The first solution is DMSO (dimethyl sulfoxide) mixed with sodium meta-arsenite. […] The third solution is DMSO mixed with arsenic acid sodium salt. Those three solutions were diluted with culture medium (RPMI 1640). The final concentrations of DMSO in those three solutions are less than 0.3 vol %.
(§2) Nine kinds of human cancer cell lines out of six kinds of cancers were grown at 37° C. under a controlled atmosphere of 95% air and 5% CO2. The cells were grown on monolayer cultures of RPMI 1640 cell culture medium supplemented with 10% fetal calf serum.
(§3) The grown cells were harvested from exponential phase cultures by trypsinization and counted. The counted cells were placed in a plate, which has ninety six wells. Each well on the plate is in a shape of a flat-bottomed microtitre. Density of the cells in a suspension was adjusted depending on the cell line. The suspension was prepared by diluting the grown cells with the culture medium (RPMI 1640). Concentration of the cells were varied from 5×10^4 to 1×10^5 viable cells/ml. 100 μl of the suspension was placed in each well of the plate. […] Then add 50 μl of culture medium (RPMI 1640) only to 6 wells, 50 μl/well, among the 96 wells of one plate. It is called controlled. One well is filled with culture medium plus 5-FU. And another 50 μl of culture medium plus one of the stock solutions were added to each of the left 89 wells to allow cells to resume exponential growth.
(§4) The cytotoxic activity test was executed with three plates simultaneously to check reliability of the data obtained. The three plates contain the same samples of cancer cells. The three plates were then incubated for 3-7 days under the same controlled atmosphere and cell proliferation was assessed with a modified propodium iodide fluorescence assay. After thawing of the plates, fluorescence was measured using a Millipore Cytofluor 2350-microplate reader (excitation 530 nm emission 620 nm) in order to quantify the total cell number. The assay included untreated and positive controls containing 5-FU.
(§5) Growth inhibition is defined as (numbers of cancer cell alive) treated (T)/(number of cells) control (C)×100% (T/C %).

U937 = test: as above; type: cell-based; conditions: U937 lymphoma, 3-7 days
Experimental: as §1, §2, §3, §4, §5

UXF 1138 = test: as above; type: cell-based; conditions: UXF 1138 uterine body, 3-7 days
Experimental: as §1, §2, §3, §4, §5

RXF 944LX = test: Anticancer activity in RXF 944LX cancer bearing nude mice, intermittent and daily schedules; conditions: for MTD: i.p., RXF 944LX
Experimental: Cancer fragments (1-2 mm in diameter), obtained from xenografts in serial passage in nude mice, were implanted subcutaneously (S.C.) in a flank of male NRMI nude mice (one fragment per mouse). Mice with appropriate cancer volumes (5-7 mm in diameter) were randomly distributed to treatment and control groups (4 mice/group). The start of treatment was day 0. Cancer volume and body weights were measured at least twice per week.
The cancer volume of each animal was determined by two-dimensional measurement using calipers. The volume was calculated according to the formula: (a×b^2)×0.5; wherein a and b represent two perpendicular diameters in which a (length) is the larger diameter and b (width) the smaller diameter.
Relative cancer volumes (RCV) were calculated for each individual cancer by dividing the cancer volume on day X by the cancer volume on day 0 multiplied by 100%. The cancer volume of a treatment group was expressed as the median RCV of all mice of the group. Median RCV values were used for drawing growth curves and treatment evaluation. Optimal cancer growth inhibition at a particular day within the treatment period was calculated from the median RCV values of the treated (T) versus the controlled (C) group multiplied by 100%. A T/C value<50% was considered as anti-cancer activity.
In the experiment with renal cancer RXF 944LX, the anticancer activity of the compounds was explored using two administration schedules; 1) intermittent schedule of 4 days×3, and 2) a daily schedule for 2 weeks (days 0-4, 7-11).
The dose levels chosen for sodium meta-arsenite and arsenic acid sodium salt in these schedules were based on the experience in the 1st experiment. Additional small dose finding studies were executed.

[1] = Subacute toxicity study, daily oral gavages for 14 days in the mouse, 28-day recovery; type: in vivo, CD-1 male mice; conditions: for Hematology: day 5 and end of treatment
Experimental: The nature and purpose of this subacute oral toxicity study was to determine the extent to which cumulative toxicity occurred with repeated administration of sodium meta-arsenite for 14 days to mice. Moreover, the study was intended to define the most likely target organs for toxicity and to investigate the reversibility of toxicity.
Ampoules of sodium meta-arsenite (dissolved in 10% (w/v) glucose in water) in concentrations of 0, 1.6 and 3.2 mg/ml were stored in a refrigerator in the dark. Based on the previous study, the following doses were selected: 0, 16 (½ MTD) and 32 mg/kg/day (MTD). Each dose was administered daily by oral gavages to groups of 20 CD-1 male mice for 14 days, followed by a 28-day recovery period.
Ten animals of each group were killed on day 15 (main groups). The remaining animals (recovery groups) were killed on day 43 after a recovery period of 28 days. Blood samples were collected from all main group animals on day 5 to determine effects on the hematology. Blood samples were also collected at the end of the treatment period (day 15, all main group animals) and after recovery (day 43, all recovery group animals) for hematology and clinical biochemistry.
Clinical signs were evaluated daily and body weights were recorded twice weekly. Macroscopic examination was performed at termination. Organ weight measurements were performed at scheduled termination, i.e. day 15 (main groups) and day 43 (recovery groups). Microscopic examination was performed on a selection of tissues of both main and recovery animals.

[2] = 8 mg/kg i.p., days 0-4, 7, 14-18

## O=[As][O-].[Na+] [Sodium meta-arsenite, sodium meta-arsenite]
MEXF 514L; 1 μg/ml
  T/C % at drug concentration: 120%
MEXF 514L; 3 μg/ml
  T/C % at drug concentration: 95%
MEXF 514L; 10 μg/ml
  T/C % at drug concentration: 98%
MEXF 514L; 30 μg/ml
  T/C % at drug concentration: 70%
MEXF 514L; 100 μg/ml
  T/C % at drug concentration: 21%
U937; 1 μg/ml
  T/C % at drug concentration: 3%
U937; 3 μg/ml
  T/C % at drug concentration: 3%
U937; 10 μg/ml
  T/C % at drug concentration: 2%
U937; 30 μg/ml
  T/C % at drug concentration: 2%
U937; 100 μg/ml
  T/C % at drug concentration: 1%
UXF 1138; 1 μg/ml
  T/C % at drug concentration: 107%
UXF 1138; 3 μg/ml
  T/C % at drug concentration: 114%
UXF 1138; 10 μg/ml
  T/C % at drug concentration: 103%
UXF 1138; 30 μg/ml
  T/C % at drug concentration: 95%
UXF 1138; 100 μg/ml
  T/C % at drug concentration: 30%
RXF 944LX; 4 mg/kg i.p., days 0-4, 7-11
  BW loss % (day): −3 (7) %
  Drug-related deaths: 2/6
  SGD (specific growth delay): 0.1
  T/C %: 55%
RXF 944LX; 5 mg/kg i.p., days 0, 4, 8
  BW loss % (day): −2 (3) %
  Drug-related deaths: 0/6
  SGD (specific growth delay): −0.5
  T/C %: 84%
RXF 944LX; [2]
  BW loss % (day): −14 (10) %
  Drug-related deaths: 3/6
RXF 944LX; 10 mg/kg i.p., days 0, 4, 8
  Drug-related deaths: 5/6
RXF 944LX; daily schedule (days 0-4, 7-11)
  MTD: 4 mg/kg/day
RXF 944LX; intermittent schedule (4 days×3)
  MTD: 5 mg/kg/day
[1]; 16 mg/kg/day oral 14 days, mouse
  Clinical signs: swelling of the abdomen and piloerection
[1]; 16 mg/kg/day
  Hematology: lower erythrocyte count, hemoglobin and haematocrit
[1]; 16 mg/kg/day, end of treatment
  Microscopic examination: atrophy of the lymphoid organs (Peyer's patches, thymus), ulceration and hyperplasia of the fore stomach epithelium, necrosis of liver and gall bladder and myeloid hyperplasia and congestion of the sternal bone marrow
  Necropsy findings: crateriform retractions of the fore stomach
[1]; 32 mg/kg/day oral 14 days, mouse
  Clinical signs: swelling of the abdomen and piloerection
[1]; 32 mg/kg/day oral 14 days, groups of 20 male mice
  Premature mortality during the treatment phase, males: 7
[1]; 32 mg/kg/day, after treatment
  Necropsy findings: crateriform retractions of the forestomach and a reduced thymus size
[1]; 32 mg/kg/day
  Hematology: Lower leucocyte count, platelet count, affected erythrocyte parameters (lower erythrocyte count, hemoglobin and haematocrit) and low reticulocyte counts
[1]; 32 mg/kg/day, end of treatment
  Clinical biochemistry: Decreased glucose, total protein and albumin concentrations and increased sodium, calcium and inorganic phosphorus concentrations
  Microscopic examination: atrophy of the lymphoid organs (mesenteric and mandibular lymph nodes, Peyer's patches, spleen and thymus), ulceration and hyperplasia of the fore stomach epithelium, ulceration of the caecum, necrosis of the liver and gall bladder
  Organ weights: Decreased absolute and relative spleen and thymus weight and increased relative liver weight
[1]; 16 and 32 mg/kg/day oral 14 days, mouse
  Main target organs for toxicity: bone marrow, lymphoid organs and the forestomach

From patent US20090061022A1, “Pharmaceutical composition comprising arsenite for the treatment of malignancy” (priority 2004, published 2009)
